Entries after “also recorded” stand apart in the source; their conditions may differ. Read-outs that look alike come from different tables or passages of the source.
Legend:
MRSA (strain USA300) [1] = assay: microbe, parasite or virus in culture; type: cell-based, Methicillin-resistant Staphylococcus aureus; details: Staphylococcus aureus; agent alone; silver expressed as silver; read-out: MIC
From the text: In therapeutic applications, synergy between active ingredients occurs when an observed combined therapeutic effect is greater than the sum of therapeutic effects of individual active ingredients, or a new therapeutic effect is produced that the active ingredients could not produce alone. […] In this context, the enhancement of therapeutic effect may take the form of increased efficacy or potency and/or decreased adverse effects. The synergistic effect may be mediated in whole or in part by the pharmacokinetics and/or pharmacodynamics of the active ingredients in a subject, so that the amount and proportion of the ingredients in the formulation may be synergistic in vivo. This in vivo synergy may be effected with a formulation that includes the active ingredients in amounts and proportions that are also synergistic in in vitro assays of efficacy. As used herein, the term “synergistically effective amounts” accordingly refers to amounts that are synergistic in vivo and/or in vitro. A numeric quantification of synergy is often expressed as a fractional inhibitory concentration index (FICI), which represents the sum of the fractional inhibitory concentrations (FICs) of each drug tested, where the FIC is determined for each drug by dividing the minimum inhibitory concentration (MIC, the lowest concentration of the drug which prevents visible growth of the bacterium in a standard in vitro assay—standard colorometric assay based on resazurin) of each drug when used in combination by the MIC of each drug when used alone. In very general terms, a FICI lower or higher than 1 indicates positively correlated activity (at least additive or potentiation) or an absence of positive interactions, respectively. […] (as described and used by Joung D K et al. and Rakoliya K et al.)
(§1) Cannabinoids or silver (expressed as the concentration of silver not the salt) were serially diluted 2-fold across the 96-well plate (Costar, catalog no. 3370) followed by addition of 100 μL of bacterial cultures with an OD600 of 0.0025. […] Wells turbidity were then analyzed using Varioskan™ microplate reader.

E. coli strain K12 = assay: Checkerboard assay, FICI of cannabinoid/silver combinations; type: cell-based, Escherichia coli; details: for FICI Silver Nanoparticles: Silver Nanoparticles in combination with the cannabinoid; for FICI Silver Sulfate: Silver Sulfate in combination with the cannabinoid
Protocol: (§2) Antibacterial growth was measured using a checkerboard analysis or qualitatively using agar plates with zones of inhibition. Viability was measured by the number of colony forming units (CFU) over time.
(§3) Using checkerboard analysis, the fractional inhibitory concentration index (FICI) was calculated for the 96-well plate test to illustrate synergy.
(§4) Escherichia coli (E. coli), strain K12, was cultured in Luria-Bertani (LB) medium and inoculated at 37 C.
as §1
(§5) FICI was calculated in a checkerboard assay based on the turbidity of the wells. FIC of each agent was determined as the ratio of the minimal inhibitory concentration MIC of one agent in the presence of the other agent to the MIC of that agent alone. FICI was consequently computed as the sum of each agent's FIC.

MRSA (strain USA 300) = type: cell-based, Methicillin-resistant Staphylococcus aureus; details: for antibiotic effect of combination compared with silver nanoparticles alone: cannabinoid 2% + silver nanoparticles 2% silver w/w to PVA, films or coated catheter sections; for inhibition of bacterial growth (ring): single agent at 2% w/w to PVA, films and coated catheter sections, 24 hours
Protocol: PVA films were made by solvent casting using 33 μl drops of 2.5% PVA (88% hydrolyzed, 125 KDa molecular weight) mixed with CBC, CBG or CBGA (2% w/w to PVA). […] 3 mm sections of a urethral catheter (BARDEX® BARD®) were cut and coated with the same 33 μl volume of PVA/Silver/cannabinoid used to make films. Films and coated catheter sections were dried overnight in the dark. Five cavities were created in the LB agar plates containing MRSA (strain USA 300) at OD600 of 0.005. PVA films and catheters coated with PVA films were then placed in the cavities and moistened with 20 μL of deionized distilled water. Plates were incubated for 24 hours at 37° C.

MRSA (USA300) = assay: Checkerboard assay, FICI of cannabinoid/silver combinations; type: cell-based, Methicillin-resistant Staphylococcus aureus
Protocol: as §2, §3
(§6) MRSA strain, USA300, was cultured in Luria-Bertani (LB) medium and inoculated at 37 C.
as §1, §5

E. coli (strain K12) [2] = assay: Kill-curve test (CFU over time); type: cell-based, Escherichia coli; details: for growth inhibition: 1.25 mg/L and 0.625 mg/L (lower concentrations)
Protocol: as §2, §4
(§7) For each test tube, 1 mL of culture at OD600 of 0.005 was added to 1 mL of LB medium containing antibiotics to reach target sub-MIC concentrations of each compound. Samples of 100 μL was extracted from each tube at the determined time stamps followed by 10-fold serial dilutions. 10 μL of each dilution was then added on the LB agar plates that were subsequently incubated for 24 hours. Colonies were inspected and results quantified as log CFU/mL.

MRSA (strain USA300) [3] = assay: Kill-curve test (CFU over time); type: cell-based, Methicillin-resistant Staphylococcus aureus; details: for combined inhibitory effects compared to ½×MIC combinations: cannabinoid ¼×MIC + AgNPs
Protocol: as §2, §6, §7

MRSA = assay: Agar plate test of CBGA with silver nanoparticles; type: cell-based, Methicillin-resistant Staphylococcus aureus
Protocol: Four LB agar plates were prepared with MRSA culture at OD600 of 0.005. (FIG. 4) Each plate contained different concentrations of CBGA (no CBGA, ½ MIC, ¼ MIC, and ⅛ MIC). All plates were then divided into quadrants, each of which received 8 μL of AgNP at different concentrations from 20 mg/L serially diluted by 2-fold down to 2.5 mg/L in 0.2 mM sodium citrate.

E. coli (strain K12) [4] = details: agent alone
From the text: In therapeutic applications, synergy between active ingredients occurs when an observed combined therapeutic effect is greater than the sum of therapeutic effects of individual active ingredients, or a new therapeutic effect is produced that the active ingredients could not produce alone. […] In this context, the enhancement of therapeutic effect may take the form of increased efficacy or potency and/or decreased adverse effects. The synergistic effect may be mediated in whole or in part by the pharmacokinetics and/or pharmacodynamics of the active ingredients in a subject, so that the amount and proportion of the ingredients in the formulation may be synergistic in vivo. This in vivo synergy may be effected with a formulation that includes the active ingredients in amounts and proportions that are also synergistic in in vitro assays of efficacy. […] A numeric quantification of synergy is often expressed as a fractional inhibitory concentration index (FICI), which represents the sum of the fractional inhibitory concentrations (FICs) of each drug tested, where the FIC is determined for each drug by dividing the minimum inhibitory concentration (MIC, the lowest concentration of the drug which prevents visible growth of the bacterium in a standard in vitro assay—standard colorometric assay based on resazurin) of each drug when used in combination by the MIC of each drug when used alone. […]

[5] = cannabinoid with silver nanoparticles
[6] = cannabinoid with silver sulfate
[7] = Silver Nanoparticles in combination with the cannabinoid
[8] = Silver Nitrate in combination with the cannabinoid
[9] = cannabinoid with silver nitrate
[10] = 8 mg/L cannabinoid + 2.5, 1.25 and 0.625 mg/L AgSO4 (each)
[11] = cannabinoid ½×MIC + AgNP 1/160×MIC (0.25 mg/L)
[12] = cannabinoid ½×MIC + AgNP ⅛×MIC (5 mg/L)
[13] = cannabinoid ½×MIC + silver nitrate 1 mg/L
[14] = cannabinoid ½×MIC + silver nitrate 5 and 8 mg/L

| SMILES | MIC (MRSA (strain USA300) [1]) [µg/mL] | FICI Silver Nanoparticles (E. coli strain K12) | FICI Silver Sulfate (E. coli strain K12) | interaction (interpretation of FICI) (E. coli strain K12; [5]) | interaction (interpretation of FICI) (E. coli strain K12; [6]) | antibiotic effect of combination compared with silver nanoparticles alone (MRSA (strain USA 300)) | inhibition of bacterial growth (ring) (MRSA (strain USA 300)) | FICI (MRSA (USA300); [7]) | FICI (MRSA (USA300); [8]) | interaction (interpretation of FICI) (MRSA (USA300); [5]) | interaction (interpretation of FICI) (MRSA (USA300); [9]) | kill-curve effect (CFU) (MRSA (strain USA300) [3]) | time for which bactericidal effect persisted (MRSA (strain USA300) [3]) [h] | MRSA growth by 24 hours (MRSA (strain USA300) [3]; cannabinoid alone at ½×MIC) | combined inhibitory effects compared to ½×MIC combinations (MRSA (strain USA300) [3]) | kill-curve effect (CFU) (MRSA (strain USA300) [3]; [11]) | kill-curve effect (CFU) (MRSA (strain USA300) [3]; [12]) | time through which bactericidal effect persisted (MRSA (strain USA300) [3]; [12]) [h] | further results |
| --- | --- | --- | --- | --- | --- | --- | --- | --- | --- | --- | --- | --- | --- | --- | --- | --- | --- | --- | --- |
| CCCCCc1cc(O)c2c(c1)OC(C)(CCC=C(C)C)C=C2 (stereo not shown) [CBC, cannabichromene] | 8 | 0.73 | 0.63 | potentiation | potentiation | increased antibiotic effect | some level of inhibition | 0.141 | 0.375 | synergistic | strongly synergistic | nearly identical full bactericidal effect | 24 | full bacterial growth had occurred; also recorded: returned to levels approximating that of 0×MIC treatment | weaker and less durable | strong bactericidal effect | full bactericidal effect | 24 | time through which bacterial growth was inhibited (E. coli (strain K12) [2]): 24 h; time through which the effect persisted (E. coli (strain K12) [2]): 24 h; time to the reduction in E. coli CFU (E. coli (strain K12) [2]): ≤ 6 h; time through which E. coli growth was inhibited (E. coli (strain K12) [2]; [10]): 24 h; time to the reduction in E. coli CFU (E. coli (strain K12) [2]; [10]): ≤ 4 h; inhibitory effect on E. coli growth over 24 hours (E. coli (strain K12) [2]; cannabinoid alone, 8 mg/L): failed to achieve any inhibitory effect; inhibition of E. coli growth over 24 hours (E. coli (strain K12) [2]; cannabinoid alone, 16 mg/L): failed to achieve any inhibition; inhibition of E. coli growth (summary) (E. coli (strain K12) [2]; cannabinoid alone, concentrations up to 16 mg/L): fail to achieve any detectable inhibition; time of onset of bactericidal effect (MRSA (strain USA300) [3]): ≤ 2 h; duration of bacterial growth inhibition (MRSA (strain USA300) [3]; cannabinoid alone at ½×MIC): 6 h; duration of strong inhibition (MRSA (strain USA300) [3]; cannabinoid ¼×MIC + silver nitrate 1 mg/L): 6 h; kill-curve effect (CFU) (MRSA (strain USA300) [3]; cannabinoid ¼×MIC + silver nitrate 5 and 8 mg/L): Almost identical results; time of onset of bactericidal effect (MRSA (strain USA300) [3]; [12]): 2 h; effect at 24 hours (MRSA (strain USA300) [3]; [13]): strong inhibition of bacterial growth; kill-curve effect (CFU) (MRSA (strain USA300) [3]; [13]): complete bactericidal effect; time for which bactericidal effect remained (MRSA (strain USA300) [3]; [13]): 6 h; time of onset of bactericidal effect (MRSA (strain USA300) [3]; [13]): 2 h; kill-curve effect (CFU) (MRSA (strain USA300) [3]; [14]): fully bactericidal; time of onset of bactericidal effect (MRSA (strain USA300) [3]; [14]): 2 h; time through which bactericidal effect remained (MRSA (strain USA300) [3]; [14]): 24 h |
| CCCCCc1cc(O)c(C/C=C(\C)CCC=C(C)C)c(O)c1C(=O)O [CBGA, cannabigerolic acid] | 4 | 0.73 | 0.75 | potentiation | potentiation | increased antibiotic effect | some level of inhibition | 0.375 | 0.53 | synergistic | partial synergy | nearly identical full bactericidal effect | 24 | returned to levels approximating that of 0×MIC treatment | weaker and less durable | strong bactericidal effect | full bactericidal effect | 24 | inhibition of MRSA growth (MRSA; CBGA at ½ MIC in the agar): strong inhibition of MRSA growth in all wells; antibiotic effect (MRSA; CBGA at ½ MIC in the agar + 20 mg/L silver nanoparticles): strongest antibiotic effect; inhibition of bacterial growth (darkening in the photo) (MRSA; CBGA at ⅛ MIC or ¼ MIC in agar + AgNP 2.5-20 mg/L): concentration dependent darkening; antibiotic effect of combination compared with silver nitrate alone (MRSA (strain USA 300); cannabinoid 2% + silver nitrate 2% silver w/w to PVA): increased antibiotic effect |
| O=S(=O)([O-])[O-].[Ag+].[Ag+] [silver sulfate] |  |  |  |  |  |  |  |  |  |  |  |  |  |  |  |  |  |  | growth inhibition (E. coli (strain K12) [2]; AgSO4 alone): very little inhibitory effects; growth inhibition (E. coli (strain K12) [2]; AgSO4 alone, listed as AgSO4): some initial growth inhibition; bactericidal effects (net reduction in bacterial CFU) (E. coli (strain K12) [2]; AgSO4 alone, 2.5 mg/L): no bactericidal effects; period of inhibition of E. coli growth (E. coli (strain K12) [2]; AgSO4 alone, 2.5 mg/L): 6 h; total increase in bacterial CFU at 24 hours (E. coli (strain K12) [2]; AgSO4 alone, 2.5 mg/L): approximately 1 log; inhibitory effect on E. coli growth (summary) (E. coli (strain K12) [2]; silver sulfate alone at 2.5 mg/L): weak inhibitory effect; MIC (E. coli (strain K12) [4]): 2.5 µg/mL |

Source: patent publication US20230248745A1, “SILVER ENHANCED CANNABINOID ANTIBIOTICS” (priority 2020, published 2023)
